Test results reported in patent US6974885B2, “Method for isolating pharmaceutically exploitable etidronate disodium” (Schering AG, priority 2000, dated 2005).
Counter-ions that a name gives are not always drawn.

What was measured:
[1] = Bulk density determination (graduated cylinder, unshaken); format: physicochemical; settings: end product
Method: Bulk Density Determination Bulk density was determined by means of a graduated cylinder (unshaken).

[2] = Particle size analysis (RETSCH screen analysis); format: physicochemical; settings: for particle size distribution, fraction 0.1-0.2 mm / particle size distribution, fraction 0.1 mm / particle size distribution, fraction 0.2-0.5 mm / particle size distribution, fraction 0.5-0.8 mm / particle size distribution, fraction 0.8-1.0 mm / particle size distribution, fraction 1.0 mm: end product; for particle size distribution, fraction 0.1-0.2 mm: screen fraction 0.1-0.2 mm; for particle size distribution, fraction 0.1 mm: screen fraction 0.1 mm; for particle size distribution, fraction 0.2-0.5 mm: screen fraction 0.2-0.5 mm; for particle size distribution, fraction 0.5-0.8 mm: screen fraction 0.5-0.8 mm; for particle size distribution, fraction 0.8-1.0 mm: screen fraction 0.8-1.0 mm; for particle size distribution, fraction 1.0 mm: screen fraction 1.0 mm
Text: A RETSCH screen analysis system was used.

[3] = cited from earlier work

bulk density [1]	particle size distribution, fraction 0.1-0.2 mm [2]	particle size distribution, fraction 0.1 mm [2]	particle size distribution, fraction 0.2-0.5 mm [2]	particle size distribution, fraction 0.5-0.8 mm [2]	particle size distribution, fraction 0.8-1.0 mm [2]	particle size distribution, fraction 1.0 mm [2]	particles <0.1 mm ([2]; maximum share of all particles)	particles >1 mm ([2]; maximum share of all particles)	Compound	solubility in organic solvents ([3]; all organic solvents)	water solubility ([3]; water)
0.48 g/mL	23.8%	0.07%	27.3%	46.2%	2.16%	0.47%			CC(O)(P(=O)(O)O)P(=O)(O)O [Example 1, etidronate disodium]		
0.51 g/mL	0.07%	0.0%	19.7%	54.9%	15.6%	9.71%			CC(O)(P(=O)(O)O)P(=O)(O)O [Example 2, etidronate disodium]		
0.4 to 0.6 g/mL							≤ 5 wt. %	≤ 10 wt. %	CC(O)(P(=O)(O)O)P(=O)(O)O [etidronate disodium, disodium salt of hydroxyethane-1,1-diphosphonicacid]	nearly insoluble	high water solubility
